Test results: patent publication US20160143944A1, “ANTIMICROBIAL COMPOSITIONS COMPRISING HYPOCHLOROUS ACID AND SILVER” (PURICOE, INC., priority 2013, published 2016)

System: Pseudomonas aeruginosa biofilm
Experiment: in vitro wound biofilm model (collagen matrix), biocidal effect
Assay type: cell-based
Conditions: 20 min at 35° C., 24 h biofilm in collagen matrix
Experimental: A biofilm test was conducted using hypochlorous acid solutions containing either 200 ppm or 600 ppm AFC. A solution containing a […] combination of silver chelate (30 ppm) and hypochlorous acid (600 ppm) which yielded a final concentration of 200 ppm AFC was also tested. Specifically, the biocidal effects of the solutions were tested using an in vitro wound biofilm model as described in […] et al. (2009), Molnlycke Healthcare. Briefly, a collagen solution was prepared in simulated wound fluid and the collagen was allowed to polymerize at 35° C. for one hour. The collagen matrix was subsequently innoculated with approximately 10^4 colony forming units (CFU) of Pseudomonas aeruginosa and incubated for twenty-four hours. The hypochlorous acid solutions were added to each matrix and incubated at 35° C. for twenty minutes. The tubes were centrifuged to separate the test solutions from the matrices. Subsequently, each matrix was digested with collagenase, washed and any surviving cells were recovered. A biofilm test was conducted to compare the biocidal effects of various hypochlorous acid solutions with or without silver additives, either in form of potassium silver citrate or silver chelate. Specifically, the effects of the solutions on P. aeruginosa biofilm were assessed using an in vitro wound biofilm model as described above. […]

OCl [hypochlorous acid solution, hypochlorous acid]
log reduction of P. aeruginosa colony forming units (CFU) (200 ppm AFC hypochlorous acid solution): one | log reduction of P. aeruginosa colony forming units (CFU) (600 ppm AFC hypochlorous acid solution): seven
